Converted amounts (≈) assume the structure as drawn. Peptide text beside a SMILES is read from it.
Columns and labels:
Gram-negative bacteria = assay: MIC, summary over Gram-negative strains; type: cell-based; settings: E. coli and Salmonella strains of Table 2
Method: (§1) The minimal inhibitory concentration (MIC) was evaluated by a microtiter plate assay ([Wiegand et al., 2008]). Serial 2-fold dilutions of test peptides were placed into a 96-well plate containing identical bacterial inoculum and incubated at 37°C for 16∼20 h. Vancomycin was used as antibiotic control. The MIC value was defined as the lowest peptide concentration where no visible growth occurred. All tests were made in triplicate.

[1] = tested on: Staphylococcus aureus CVCC 546; assay: microbe, parasite or virus in culture; type: cell-based
Summary of the method: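 Each strain was exposed to two-fold serial dilutions of peptide in a plate assay. After incubation for 16∼20 h at 37°C, wells were scored for growth, and the MIC was recorded as the lowest concentration lacking visible growth.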

S. aureus CVCC 546 gDNA = assay: Gel retardation assay of gDNA binding; design: species or system Staphylococcus aureus; settings: 10 min incubation, 1% agarose gel, ratios 0-5 (w/w)
Method: A gel retardation assay ([Zhao et al., 2019]) was utilized to analyze the binding of peptides to genomic DNA (gDNA) extracted from S. aureus CVCC 546 with TIANamp Bacteria DNA Kit (TIANGEN Biotech Co., Ltd., Beijing). The peptides were incubated for 10 min with gDNA at different ratios of 0–5.0 (w/w) and then loaded on 1% agarose gel for electrophoresis analysis.

[2] = tested on: Salmonella pullorum CVCC 533; assay: MIC, microtiter plate assay; type: cell-based; settings: 37°C, 16∼20 h, triplicate
Method: as §1

[3] = tested on: Escherichia coli ATCC 25922; assay: MIC, microtiter plate assay; type: cell-based; settings: 37°C, 16∼20 h, triplicate
Method: as §1

[4] = tested on: Streptococcus pneumoniae CVCC 2350; assay: MIC, microtiter plate assay; type: cell-based; settings: 37°C, 16∼20 h, triplicate
Method: as §1

S. aureus CVCC 546 [5] = assay: Potassium ion (K+) leakage; type: cell-based, Staphylococcus aureus; settings: 1 × MIC, treated for 150 min, 0.9% saline, 10^8 CFU/mL, ICP, n = 3
Method: To further investigate the effects of peptides on membrane integrity, K^+ leakage determination was carried out as previously described ([Miao et al., 2016]). Briefly, S. aureus CVCC 546 cells were centrifuged, washed, and resuspended in 0.9% sterile saline. The cell suspension (10^8 CFU/mL) was treated with peptides at 1 × MIC. Cells untreated and treated with DLP4 or nisin were used as blank and positive controls. At time intervals of 30, 60, 90, 120, and 150 min, the suspensions were centrifuged at 12000 rpm for 5 min. The supernatants were then subjected to measurement by Agilent inductively coupled plasma optical emission (ICP-OES).

mouse erythrocytes = assay: Hemolytic activity; type: cell-based; settings: 128 μg/mL, 8% (v/v) mouse erythrocytes in PBS, 1 h, 37°C, absorbance 576 nm, n = 3
Method: Hemolytic activity of peptides was evaluated with fresh mouse erythrocytes. Briefly, fresh mouse erythrocytes were collected, washed, and resuspended to a concentration of 8% (v/v) in PBS. Then, an aliquot of erythrocyte solution was added to 96-well plates containing an equal volume of peptide solution (1∼256 μg/mL) and was incubated for 1 h at 37°C. The erythrocyte suspension treated with 0.1% Triton X-100 and left untreated was employed as positive and negative controls, respectively. After centrifugation at 2000 rpm for 5 min, the supernatant was measured using a microplate reader at 576 nm. The percent hemolysis was calculated using the following formula: Percenthemolysis = [(A − A0)/(A100 − A0)] × 100%, where A, A100, and A0 represent the absorbance of the peptide sample and positive and negative controls, respectively.

E. coli K88 = assay: MIC, microtiter plate assay; type: cell-based, Escherichia coli; settings: 37°C, 16∼20 h, triplicate
Method: as §1

S. aureus CVCC 546 [6] = assay: Membrane permeabilization, PI flow cytometry; type: cell-based, Staphylococcus aureus; settings: 0.5 h, 10^8 CFU/mL, n = 3
Method: The effects of peptides on membrane permeabilization were measured by flow cytometry ([Zhu et al., 2018]). […] Cells untreated and treated with 2 × MIC DLP4 or vancomycin were used as blank and positive controls. The fluorescence of the dye was monitored at an excitation wavelength of 488 nm and an emission wavelength of 635 nm.

S. aureus CVCC 546 [7] = assay: Mouse thigh infection model, CFU in thigh muscle; type: in vivo, mouse (female CD-1); settings: 10 mg/kg single i.p. dose 2 h post-infection, read 24 h post-infection, n = 6
Method: Mouse experiments were carried out at Gene Engineering Laboratory, Feed Research Institute of Chinese Academy of Agricultural Sciences (CAAS) and complied with institutional animal care and use policies and procedures (AEC-CAAS-20090609). All animal studies were performed with female CD-1 mice, 6∼7 weeks old.
S. aureus CVCC 546 in the exponential phase were resuspended in MHB and adjusted to 1 × 10^8 CFU/mL, a 0.1-mL inoculum was injected into the right thighs of mice. At 2 h post-infection, mice (n = 6) were administered intraperitoneally (i.p.) with peptides at 2.5, 5, or 10 mg/kg. Mice raised without any treatment, or treated with PBS, 10 mg/kg DLP4, or vancomycin were used as the blank and negative and positive controls, respectively. At 24 h post-infection, peripheral blood was collected and serum was separated for cytokine levels analysis by using enzyme-linked immunosorbent assay (ELISA) kit (R&D systems, United States). Mice were euthanized, the right thighs were aseptically removed and processed for colonies counting ([Ling et al., 2015]).

[8] = tested on: S. epidermidis ATCC 12228; assay: MIC, microtiter plate assay; type: cell-based, Staphylococcus epidermidis; settings: 37°C, 16∼20 h, triplicate
Method: as §1

S. enteritidis CVCC 3377 = assay: MIC, microtiter plate assay; type: cell-based, Salmonella enteritidis; settings: 37°C, 16∼20 h, triplicate
Method: as §1

[9] = tested on: mouse macrophage RAW 264.7; assay: Cytotoxicity, MTT assay; type: cell-based; settings: 256 μg/mL, RAW 264.7, MTT, n = 4
Method: The cytotoxicity of peptides toward mouse macrophage RAW 264.7 was evaluated by the MTT assay as described previously ([Wang X. et al., 2018]).

S. aureus CVCC 546 [10] = assay: Time-kill assay; type: cell-based, Staphylococcus aureus; settings: MHB, 10^5 CFU/mL, 37°C, n = 3
Source text: Time-kill assay was used to assess the killing rates of S. aureus cells by AMPs in vitro, done by measuring the number of viable bacteria left at various times after exposure to the peptides. […] At different time intervals, a certain sample was taken, serially diluted, and plated on MHA for colonies counting. Cells treated with 2 × MIC DLP4 or vancomycin and left without treatment were used as the positive and blank controls, respectively ([Flamm et al., 2019]).

CC[C@H](C)[C@@H]1NC(=O)[C@@H]2CSSC[C@@H](C(=O)N[C@@H](CCCNC(=N)N)C(=O)N[C@@H](CCCCN)C(=O)O)NC(=O)[C@H](CC(N)=O)NC(=O)[C@@H]3CSSC[C@H](NC(=O)[C@H](C)NC(=O)[C@H](C)NC(=O)[C@H](Cc4c[nH]cn4)NC(=O)CNC(=O)[C@H](C(C)C)NC(=O)[C@H](CCCCN)NC(=O)[C@H](Cc4ccccc4)NC(=O)[C@@H]4CCCN4C(=O)[C@H](CO)NC(=O)[C@H](CC(C)C)NC(=O)[C@H](CC(C)C)NC(=O)[C@H](CC(=O)O)NC(=O)[C@@H](NC(=O)[C@@H](NC(=O)[C@H](C)N)[C@@H](C)O)CSSC[C@H](NC(=O)[C@H](Cc4c[nH]c5ccccc45)NC(=O)CNC(=O)CNC(=O)[C@H](CCCNC(=N)N)NC(=O)[C@H](CCCCN)NC(=O)CNC(=O)[C@H](CCCNC(=N)N)NC(=O)[C@H](C)NC1=O)C(=O)N[C@@H](CC(=O)O)C(=O)NCC(=O)N[C@@H](CCCNC(=N)N)C(=O)N[C@@H](C)C(=O)N[C@@H](C(C)C)C(=O)N3)C(=O)N[C@@H](C)C(=O)N[C@@H](C)C(=O)N[C@@H](Cc1c[nH]cn1)C(=O)N2 [ID13] (HELM PEPTIDE1{A.T.C.D.L.L.S.P.F.K.V.G.H.A.A.C.A.A.H.C.I.A.R.G.K.R.G.G.W.C.D.G.R.A.V.C.N.C.R.K}$PEPTIDE1,PEPTIDE1,3:R3-30:R3|PEPTIDE1,PEPTIDE1,16:R3-36:R3|PEPTIDE1,PEPTIDE1,20:R3-38:R3$$$V2.0; N-terminus and C-terminus assumed)
activity against Gram-negative bacteria (Gram-negative bacteria): no activity | MIC ([1]; Table 1, – = no activity): 4 | MIC ([1]; microtiter, 37°C, 16∼20 h, triplicate): 0.95 µM (≈ 3.99 µg/mL) | peptide/gDNA mass ratio at which gDNA was completely blocked (S. aureus CVCC 546 gDNA): 5 | peptide/gDNA mass ratio at which migration of gDNA began to be retarded (S. aureus CVCC 546 gDNA): 1 | MIC [2]: >30.50 µM | MIC [3]: >30.50 µM | MIC [4]: 0.95 µM (≈ 3.99 µg/mL) | level of released K+ (S. aureus CVCC 546 [5]): 0.81 mg/L | hemolysis (mouse erythrocytes): 0.38% | MIC (E. coli K88): >30.50 µM | percentage of PI-positive cells (S. aureus CVCC 546 [6]; 1 × MIC): 47.2% | percentage of PI-positive cells (S. aureus CVCC 546 [6]; 2 × MIC): 48.2% | percentage of PI-positive cells (S. aureus CVCC 546 [6]; 4 × MIC): 52.8% | reduction of S. aureus in infected thigh muscles (S. aureus CVCC 546 [7]): 1.8 log10 (CFU/g) | MIC [8]: 1.91 µM (≈ 8.02 µg/mL) | MIC (S. enteritidis CVCC 3377): >30.50 µM | cell viability [9]: 71.4% | decrease of CFU counts within 1 h (S. aureus CVCC 546 [10]; 1 × MIC): 2.16 log10 CFU/mL | decrease of CFU counts within 1 h (S. aureus CVCC 546 [10]; 2 × MIC): 3.14 log10 CFU/mL | decrease of CFU counts within 1 h (S. aureus CVCC 546 [10]; 4 × MIC): 3.4 log10 CFU/mL

Source: article PMC7291858, “An Enhanced Variant Designed From DLP4 Cationic Peptide Against Staphylococcus aureus CVCC 546” (Frontiers in Microbiology, 2020)
